The source of these data is patent publication US20210348119A1, “COMPOSITIONS AND METHODS FOR CELL CULTURE” (The United States of America as Represented By The …, priority 2018, published 2021).

Several values for one entry are separate records, joined by “and”; a condition that tells them apart may be missing. Identical values can stand only once. Counter-ions that a name gives are not always drawn. Like-named read-outs stand apart in the source and are kept apart here.

Experiment [1] deals with H9 cells. As to the kind of experiment: Combinatorial matrix screening for synergistic effects on cell survival. The note with it: 10×10 matrix, normalized to 10 μM Y-27632. Format: cell-based, human. How it is done:
Combinatorial matrix screening was performed to identify the compounds with synergistic effects on cell survival. Focusing on the compounds with different mechanisms of action, 29 compounds were selected for combinational matrix screening, resulting in 812 sets of 10×10 checkerboard matrix experiments (data not shown), four of which are illustrated in FIG. 9. The concentrations of the compounds for combinational matrix screening were optimized based on the slope and potency (AC50) derived from single-agent qHTS dose-response curves, so that the matrix screen covered a wide range of biological effect observed in the cell viability assay. […] The numerals in each 10×10 matrix show the maximum survival achieved with the indicated combinations or single agents. The maximum survival achieved by each pair of compounds is represented by the highest numbers in each 10×10 matrix, the examples of which are shown in FIG. 9. The bottom matrices depict the synergy matrix calculated using highest-single agent (HSA) model. The HSA synergy assesses the pro-survival benefit of compound combination compared to single agent alone, which was computed as the difference between cell survival out of combination and that from the best single agent at each tested concentration. Synergy is defined as the difference between the combination and max response with single agent (synergy=combination max (single agent A, single agent B).

Experiment [2] relates to H9 cells. Nature of the experiment: qHTS for survival of dissociated H9 cells (CellTiter-Glo, 24 hours after seeding). Format: cell-based, human. The source says:
FIG. 2 schematically illustrates qHTS procedure.
All the screed compounds were received pre-plated at the pre-determined concentrations. […] Curve classification is explained in Huang et al. “Chemical genomics profiling of environmental chemical modulation of human nuclear receptors” Environ. Health. Perspect.

In experiment [3] the test system is H9 cells. As to the kind of experiment: Embryoid body formation assays. The note with it: AggreWell plates, 24 hours after seeding.
Method: In one series of experiments, H9 cells were dissociated with Accutase. […] Embryoid body (EB) formation was examined 24 hours after cell seeding.
In a different experimental approach (data not shown), a defined number of H9 cells was plated into AggreWell™ plates (StemCell Technologies, Vancouver, Canada) to generate single EBs per well. Embryoid body (EB) formation was examined 24 hours after cell seeding.
Pluripotent stem cells (WA09, also called H9 cells, obtained from WiCell, Madison, Wis.) dissociated with Accutase were seeded into AggreWell™ plates (StemCell Technologies, Vancouver, Canada) to generate EBs. Bright field images were taken 24 hours after seeding.
H9 cells dissociated with Accutase were seeded into 96-well plates (ultra-low attachment) to generated EBs. After 24 hours, calcein (green staining, live cells) and PI (red staining, dead cells) were added to the cell culture medium to visualize live and dead cells in the wells.
For experiment [4], the system named is H9 cells. As to the kind of experiment: Survival and attachment of single-cell dissociated cells (CellTiter-Glo, time-lapse imaging). Format: cell-based, human. The note with it: 50 nM Chroman 1, 5 μM Emricasan; vitronectin-coated plates, over 24 hours. The protocol: CellTiter-Glo® assay was used to quantify viable […] cells 24 hours post-plating (100,000 cells/[…]). […] Cellular stress was already apparent 20 minutes after plating in the presence of Emricasan, which ultimately led to dead cells at 24 hours.
For orientation: In ATP-based viability assays light output follows the ATP content of the culture.

The mark [5] stands for this setting: H9 cell survival normalized to 10 μM Y-27632 (taken to be 100%).
Setting [6] is: H9 cell survival, CellTiter-Glo 24 hours after seeding; read-out: AC50 (concentration at 50% efficacy).
Where [7] appears, read: H9 cell survival, normalized to 10 μM Y-27632.
Setting [8] is: Homo sapiens, H9, 24 h; read-out: Efficacy (activity range between predicted activities at zero and infinite doses, Hill equation).
[9] abbreviates: Homo sapiens, H9, 24 h; read-out: Max (maximum activity value from all tested concentrations).
[10] abbreviates: Homo sapiens; H9 cell survival, CellTiter-Glo 24 hours after seeding; read-out: AC50 (concentration at 50% efficacy).
The mark [11] stands for this setting: Homo sapiens, H9, 24 h, H9 cell survival normalized to 10 μM Y-27632 (taken to be 100%); read-out: Max (maximum activity value from all tested concentrations).
Where [12] appears, read: Homo sapiens, H9, 24 h, H9 cell survival, CellTiter-Glo 24 hours after seeding; read-out: AC50 (concentration at 50% efficacy).
Where [13] appears, read: Homo sapiens, H9, 24 h, H9 cell survival, normalized to 10 μM Y-27632; read-out: Efficacy (activity range between predicted activities at zero and infinite doses, Hill equation).
Where [14] appears, read: Homo sapiens, H9, 24 h, read-out: Efficacy (activity range between predicted activities at zero and infinite doses, Hill equation).
The mark [15] stands for this setting: Homo sapiens, H9, 24 h, read-out: Max (maximum activity value from all tested concentrations).

For the compound `CC(C)[C@H](NC(=O)c1ccc2ccccc2n1)C(=O)N[C@@H](CC(=O)O)C(=O)COc1c(F)cccc1F` [Q-VD-OPh hydrate], in experiment [1], the “synergy with Chroman 1 on cell survival (HSA model)” value (shortened to “synergy”) is recorded as “synergistic with Chroman 1”. Further, the “Max (maximum activity value from all tested concentrations)” value in experiment [2] (setting [5]) was 93.54%. In addition, the AC50 in experiment [2] (setting [6]) was 1170 nM. In experiment [2] (setting [7]), the “Efficacy (activity range between predicted activities at zero and infinite doses, Hill equation)” value is given as 85.9.

For `C[C@H](NC(=O)C(=O)Nc1ccccc1C(C)(C)C)C(=O)N[C@@H](CC(=O)O)C(=O)COc1c(F)c(F)cc(F)c1F` [Emricasan, 3-(2-(2-tert-butylphenylaminooxalyl)aminopropionylamino)-4-oxo-5-(2,3,5,6-tetrafluorophenoxy)pentanoic acid], the “synergy” value in experiment [1] is on record as “synergistic with Chroman 1”. In addition, the Emax in experiment [2] (setting [8]) is 95.8%; in experiment [2] (setting [9]) it was 76.4%. Also, the AC50 in experiment [2] (setting [10]) was found to be 33200 nM. Moreover, the “single EB formation and dead cells” value in experiment [3] was “did not result in proper cell aggregation and EB formation”. In addition, the “cell attachment and survival in time-lapse imaging” value in experiment [4] is given as “not sufficient to improve cell viability beyond 24 hours”.

As to `Cc1ccc2c(c1)C(=O)C1(O)CCN(c3ccccc3)C1=N2` (single isomer, unassigned; (-)) [(−)-Blebbistatin], the “synergy” value in experiment [1] is “lacking synergy”. Besides, in experiment [2] (setting [5]), the “Max (maximum activity value from all tested concentrations)” value was 90.71% and 107.8%. Moreover, in experiment [2] (setting [7]), the “Efficacy (activity range between predicted activities at zero and infinite doses, Hill equation)” value is 105 and 96.

Take `C/C=C(/C)C(=O)O[C@H]1C(C)=C[C@]23C(=O)[C@@H](C=C(CO)[C@@H](O)[C@]12O)[C@H]1[C@@H](C[C@H]3C)C1(C)C` [Ingenol mebutate]: the Emax in experiment [2] (setting [8]) is 41.4%; in experiment [2] (setting [9]), 57.6%. Also, in experiment [2] (setting [10]), the AC50 is 118 nM.

Turning to `CC1=C(C(=O)Nc2cc3cn[nH]c3cc2F)C(c2ccc(Cl)cc2F)N=C(c2ccnc(Cl)c2)N1` (stereo not drawn) [GSK-25], in experiment [2] (setting [5]), the “Max (maximum activity value from all tested concentrations)” value is 121.1% and 113.3%. Moreover, the “Efficacy (activity range between predicted activities at zero and infinite doses, Hill equation)” value in experiment [2] (setting [7]) was 118 and 113.

In the case of `O=S(=O)(c1cccc2cnccc12)N1CCCNCC1` [Fasudil hydrochloride], the Emax in experiment [2] (setting [11]) is 107%; in experiment [2] (setting [13]) it was 127%. The AC50 in experiment [2] (setting [12]) worked out at 33200 nM.

`CC(N/C(=N\C#N)Nc1ccncc1)C(C)(C)C` (stereo not drawn) [Pinacidil]: in experiment [2] (setting [12]), the AC50 stood at 21100 nM. The Emax in experiment [2] (setting [14]) is 86.4%; in experiment [2] (setting [15]), 83.1%.

For `CCCCOc1c(C(=O)c2c(F)cc(C)cc2F)c[nH]c2nncc1-2` [BMS-265246], the results for the Emax in experiment [2] (setting [11]) and in experiment [2] (setting [13]) were 42.8% and 33.9%, respectively. For the same compound, the AC50 in experiment [2] (setting [12]) was found to be 1180 nM.

As to `C[C@@H]1O[C@@H](OC2C(O[C@H]3[C@H](O[C@H]4CC[C@@]5(C)C(CC[C@]6(C)C5CC=C5C7CC(C)(C)CC(O)[C@]7(C)CC[C@]56C)C4(C)C)O[C@H](C(=O)O)[C@@H](O)[C@@H]3O)OC(CO)C(O)C2O)[C@H](O)[C@H](O)[C@H]1O` (stereo partly drawn) [NCGC00381003-01], the “Max (maximum activity value from all tested concentrations)” value in experiment [2] (setting [5]) is reported as 22.06%. Further, the AC50 in experiment [2] (setting [6]) is 2480 nM. The “Efficacy (activity range between predicted activities at zero and infinite doses, Hill equation)” value in experiment [2] (setting [7]) is 24.5.

Regarding `N#Cc1cc(-c2ccnc(Nc3ccc(N4CCOCC4)cc3)n2)ccc1OC1CCOCC1` [IKK epsilon-IN-1], the “Max (maximum activity value from all tested concentrations)” value in experiment [2] (setting [5]) is given as 28.74%. The AC50 in experiment [2] (setting [6]) was determined as 14700 nM. For the same compound, the “Efficacy (activity range between predicted activities at zero and infinite doses, Hill equation)” value in experiment [2] (setting [7]) is recorded as 30.6.

Regarding `c1ccc2c3c([nH]c2c1)CNCC3` [tryptoline], the values for the Emax in experiment [2] (setting [11]) and in experiment [2] (setting [13]) were 27.9% and -33.1%, respectively. Also, the AC50 in experiment [2] (setting [12]) stood at 0.9 nM.

With `C[C@]12O[C@H](C[C@]1(O)CO)n1c3ccccc3c3c4c(c5c6ccccc6n2c5c31)CNC4=O` [Lestaurtinib], in experiment [2] (Homo sapiens, H9, 24 h, read-out: AC50 (concentration at 50% efficacy)), the AC50 was determined as 1180 nM. Also, the Emax in experiment [2] (setting [14]) was 7.59%; in experiment [2] (setting [15]) it was 53%.

Turning to `Cl.O=c1[nH]ccc2cc(OC3CCNCC3)ccc12` [SAR407899 (hydrochloride)], in experiment [2] (setting [5]), the “Max (maximum activity value from all tested concentrations)” value amounted to 116.3%. In addition, the AC50 in experiment [2] (setting [6]) is 2930 nM. For the same compound, the “Efficacy (activity range between predicted activities at zero and infinite doses, Hill equation)” value in experiment [2] (setting [7]) is 112.

In the case of `O=C1NC(=O)C(=O)C(=O)N1` [ALLOXAN], the Emax in experiment [2] (setting [8]) was 27.2%; in experiment [2] (setting [9]), 22.4%. For the same compound, in experiment [2] (setting [10]), the AC50 turned out to be 5210 nM.

For `C[C@]12C[C@@H](O)[C@H]3[C@@H](CC[C@@H]4C[C@@H](O)CC[C@@]43CO)[C@@]1(O)CC[C@@H]2C1=CC(=O)OC1` [19-hydroxysarmentogenin], the “Max (maximum activity value from all tested concentrations)” value in experiment [2] (setting [5]) worked out at 21.79%. In addition, in experiment [2] (setting [6]), the AC50 was 4 nM. In addition, in experiment [2] (setting [7]), the “Efficacy (activity range between predicted activities at zero and infinite doses, Hill equation)” value is −11.5.

As for `CNc1ccc([N+](=O)[O-])c(Nc2ccc3[nH]ncc3c2)n1` [KRIBB11], the “Max (maximum activity value from all tested concentrations)” value in experiment [2] (setting [5]) came out at 72.62%. Besides, the AC50 in experiment [2] (setting [6]) stood at 585 nM. Further, in experiment [2] (setting [7]), the “Efficacy (activity range between predicted activities at zero and infinite doses, Hill equation)” value is listed as 62.1.

Regarding `CCC[C@@]1(CCc2ccccc2)CC(O)=C([C@H](CC)c2cccc(NS(=O)(=O)c3ccc(C(F)(F)F)cn3)c2)C(=O)O1` [Tipranavir], the Emax was 26.5% in experiment [2] (setting [8]) and 21.8% in experiment [2] (setting [9]). In addition, in experiment [2] (setting [10]), the AC50 worked out at 26100 nM.

Turning to `Cc1cnc(Nc2ccc(OCCN3CCCC3)cc2)nc1Nc1cccc(S(=O)(=O)NC(C)(C)C)c1` [TG-101348], the Emax in experiment [2] (setting [11]) is 55.1%; in experiment [2] (setting [13]) it was 67.3%. For the same compound, the AC50 in experiment [2] (setting [12]) is 33200 nM.

Turning to `CCCCCCCCCCCCCC(=O)O[C@@H]1[C@@H](C)[C@@]2(O)[C@@H](C=C(CO)C[C@]3(O)C(=O)C(C)=C[C@@H]23)[C@@H]2C(C)(C)[C@]12OC(C)=O` [Phorbol 12-myristate 13-acetate], the “Max (maximum activity value from all tested concentrations)” value in experiment [2] (setting [5]) came to 48.49%. For the same compound, the AC50 in experiment [2] (setting [6]) is 210 nM. Besides, the “Efficacy (activity range between predicted activities at zero and infinite doses, Hill equation)” value in experiment [2] (setting [7]) is listed as 36.8.
